Measured values reported in US20240109918A1, “HETEROCYCLIC COMPOUNDS AND USES THEREOF” (Kumquat Biosciences Inc., priority 2022, published 2024).

How the values were obtained:
[1] = target: T1, KRASG12D (Homo sapiens, UniProt P01116, G12D); test: Bio-Biochem-PPI-HTRF Ras-SOS1 interaction assay (KRAS G12D); type: biochemical; settings: 5 nM
T1 construct: made in house; host or cells: E. coli BL21 (DE3)
Method in brief: (§1)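 HTRF readout (ex 337 nm; em 620 and 665 nm) after ≥~10 min incubation; IC50 fitted from 665/620 ratio. GST-K-Ras wt or G12D plus anti-GST-Eu(K), His-hSOS1 plus anti-6His-XL665; duplicate dilutions, 10 μM top.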

[2] = target: T2, KRASwt (Homo sapiens, UniProt P01116); test: Bio-Biochem-PPI-HTRF Ras-SOS1 interaction assay (KRAS wt); type: biochemical; settings: 5 nM
T2 construct: made in house; host or cells: E. coli BL21 (DE3)
T2 sequence (P01116 1-188 isoform P01116-2): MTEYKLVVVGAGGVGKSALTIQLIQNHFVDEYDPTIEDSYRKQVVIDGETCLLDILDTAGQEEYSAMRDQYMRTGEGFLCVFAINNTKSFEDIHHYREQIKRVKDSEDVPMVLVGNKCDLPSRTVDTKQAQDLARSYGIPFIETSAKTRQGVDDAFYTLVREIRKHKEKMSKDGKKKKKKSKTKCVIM
Method in brief: as §1

T1 sequence (P01116 1-188 isoform P01116-2 G12D): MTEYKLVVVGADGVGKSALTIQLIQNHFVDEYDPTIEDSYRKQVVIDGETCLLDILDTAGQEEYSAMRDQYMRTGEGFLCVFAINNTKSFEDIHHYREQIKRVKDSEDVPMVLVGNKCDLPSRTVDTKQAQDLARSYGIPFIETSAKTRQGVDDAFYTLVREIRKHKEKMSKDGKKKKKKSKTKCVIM

Row | Compound | IC50 [1] | IC50 [2]
1 | N#Cc1c(N)sc2c(F)ccc(-c3c(Cl)cc4c(N5CCCCC6(CN(C(=O)C7CC78CCOC8)C6)C5)nc(OC[C@@]56CCCN5C[C@H](F)C6)nc4c3F)c12 (stereo partly drawn) [compound 267, 4-(4-(2-(5-oxaspiro[2.4]heptane-1-carbonyl)-2,6-diazaspiro[3.6]decan-6-yl)-6-chloro-8-fluoro-2-(((2R,7aS)-2-fluorotetrahydro-1H-pyrrolizin-7a(5H)-yl)methoxy)quinazolin-7-yl)-2-amino-7-fluorobenzo[b] thiophene-3-carbonitrile] | < 5 µM | < 5 µM
2 | N#Cc1c(N)sc2c(F)ccc(-c3c(Cl)cc4c(N5CCCCC6(CN(C(=O)C7CC(C#N)C7)C6)C5)nc(OC[C@@]56CCCN5C[C@H](F)C6)nc4c3F)c12 (stereo partly drawn) [compound 294, 2-amino-4-(6-chloro-4-(2-(3-cyanocyclobutane-1-carbonyl)-2,6-diazaspiro[3.6]decan-6-yl)-8-fluoro-2-(((2R,7aS)-2-fluorotetrahydro-1H-pyrrolizin-7a(5H)-yl)methoxy)quinazolin-7-yl)-7-fluorobenzo[b]thiophene-3-carbonitrile] | < 5 µM | < 5 µM
3 | N#Cc1c(N)sc2c(F)ccc(-c3c(Cl)cc4c(N5CCCCC6(CN(C(=O)N7CCC7)C6)C5)nc(OC[C@@]56CCCN5C[C@H](F)C6)nc4c3F)c12 [compound 272, 2-amino-4-(4-(2-(azetidine-1-carbonyl)-2,6-diazaspiro[3.6]decan-6-yl)-6-chloro-8-fluoro-2-(((2R,7aS)-2-fluorotetrahydro-1H-pyrrolizin-7a(5H)-yl)methoxy)quinazolin-7-yl)-7-fluorobenzo[b]thiophene-3-carbonitrile] | < 5 µM | < 5 µM
4 | N#Cc1c(N)sc2c(F)ccc(-c3c(Cl)cc4c(N5CCCCC6(CN(C(=O)[C@@H]7C[C@H]7C#N)C6)C5)nc(OC[C@@]56CCCN5C[C@H](F)C6)nc4c3F)c12 [compound 263, 2-amino-4-(6-chloro-4-(2-((1R,2R)-2-cyanocyclopropane-1-carbonyl)-2,6-diazaspiro[3.6]decan-6-yl)-8-fluoro-2-(((2R,7aS)-2-fluorotetrahydro-1H-pyrrolizin-7a(5H)-yl)methoxy)quinazolin-7-yl)-7-fluorobenzo[b]thiophene-3-carbonitrile] | < 5 µM | < 5 µM
5 | N#Cc1c(N)sc2c(F)ccc(-c3c(Cl)cc4c(N5CCC(O)CC6(CN(C(=O)[C@@H]7CC7(F)F)C6)C5)nc(OC[C@@]56CCCN5C[C@H](F)C6)nc4c3F)c12 (stereo partly drawn) [compound 249, 2-amino-4-(6-chloro-4-(2-((S)-2,2-difluorocyclopropane-1-carbonyl)-9-hydroxy-2,6-diazaspiro[3.6]decan-6-yl)-8-fluoro-2-(((2R,7aS)-2-fluorotetrahydro-1H-pyrrolizin-7a(5H)-yl)methoxy)quinazolin-7-yl)-7-fluorobenzo[b]thiophene-3-carbonitrile] | < 5 µM | < 5 µM
6 | N#Cc1c(N)sc2c(F)ccc(-c3c(Cl)cc4c(N5CC(F)CCC6(CN(C(=O)[C@@H]7CC7(F)F)C6)C5)nc(OC[C@@]56CCCN5C[C@H](F)C6)nc4c3F)c12 (stereo partly drawn) [compound 269, 2-amino-4-(6-chloro-4-(2-((S)-2,2-difluorocyclopropane-1-carbonyl)-8-fluoro-2,6-diazaspiro[3.6]decan-6-yl)-8-fluoro-2-(((2R,7aS)-2-fluorotetrahydro-1H-pyrrolizin-7a(5H)-yl)methoxy)quinazolin-7-yl)-7-fluorobenzo[b]thiophene-3-carbonitrile] | < 5 µM | < 5 µM
7 | N#Cc1c(N)sc2c(F)ccc(-c3c(Cl)cc4c(N5CCCCC6(CN(C(=O)C7(CN8CCOCC8)CC7)C6)C5)nc(OC[C@@]56CCCN5C[C@H](F)C6)nc4c3F)c12 [compound 278, 2-amino-4-(6-chloro-8-fluoro-2-(((2R,7aS)-2-fluorotetrahydro-1H-pyrrolizin-7a(5H)-yl)methoxy)-4-(2-(1-(morpholinomethyl)cyclopropane-1-carbonyl)-2,6-diazaspiro[3.6]decan-6-yl)quinazolin-7-yl)-7-fluorobenzo[b]thiophene-3-carbonitrile] | < 5 µM | < 5 µM
8 | N#Cc1c(N)sc2c(F)ccc(-c3c(Cl)cc4c(N5CCCC6(CN(C(=O)[C@@H]7C[C@H]7C#N)C6)C5)nc(OC[C@@]56CCCN5C[C@H](F)C6)nc4c3F)c12 [compound 104, 2-amino-4-(6-chloro-4-(2-((1R,2R)-2-cyanocyclopropane-1-carbonyl)-2,6-diazaspiro[3.5]nonan-6-yl)-8-fluoro-2-(((2R,7aS)-2-fluorotetrahydro-1H-pyrrolizin-7a(5H)-yl)methoxy)quinazolin-7-yl)-7-fluorobenzo[b]thiophene-3-carbonitrile] | < 5 µM | < 5 µM
9 | CC(F)(F)C(=O)N1CC2(CCCCN(c3nc(OC[C@@]45CCCN4C[C@H](F)C5)nc4c(F)c(-c5ccc(F)c6sc(N)c(C#N)c56)c(Cl)cc34)C2)C1 [compound 213, 2-amino-4-(6-chloro-4-(2-(2,2-difluoropropanoyl)-2,6-diazaspiro[3.6]decan-6-yl)-8-fluoro-2-(((2R,7aS)-2-fluorotetrahydro-1H-pyrrolizin-7a(5H)-yl)methoxy)quinazolin-7-yl)-7-fluorobenzo[b]thiophene-3-carbonitrile] | < 5 µM | < 5 µM
10 | C[C@H](Oc1nc(N2CCOC3(CNC3)C2)c2cc(Cl)c(-c3ccc(F)c4sc(N)c(C#N)c34)c(F)c2n1)[C@@H]1CCCN1C (single isomer, unassigned; atropisomer 1) [compound 128] | ≥ 5 µM | < 5 µM

Now from value to molecule:

Row | IC50 [1] | IC50 [2] | Compound
11 | < 5 µM | < 5 µM | N#Cc1c(N)sc2c(F)ccc(-c3c(Cl)cc4c(N5CCN(CC6CC6)C6(CN(C(=O)C(F)F)C6)C5)nc(OC[C@@]56CCCN5C[C@H](F)C6)nc4c3F)c12 [compound 346, 2-amino-4-(6-chloro-4-(5-(cyclopropylmethyl)-2-(2,2-difluoroacetyl)-2,5,8-triazaspiro[3.5]nonan-8-yl)-8-fluoro-2-(((2R,7aS)-2-fluorotetrahydro-1H-pyrrolizin-7a(5H)-yl)methoxy)quinazolin-7-yl)-7-fluorobenzo[b]thiophene-3-carbonitrile]
12 | < 5 µM | < 5 µM | CN(C)CCC(=O)N1CC2(C1)CN(c1nc(OC[C@@]34CCCN3C[C@H](F)C4)nc3c(F)c(-c4ccc(F)c5sc(N)c(C#N)c45)c(Cl)cc13)CCO2 [compound 312, 2-amino-4-(6-chloro-4-(2-(3-(dimethylamino)propanoyl)-5-oxa-2,8-diazaspiro[3.5]nonan-8-yl)-8-fluoro-2-(((2R,7aS)-2-fluorotetrahydro-1H-pyrrolizin-7a(5H)-yl)methoxy)quinazolin-7-yl)-7-fluorobenzo[b]thiophene-3-carbonitrile]
13 | < 5 µM | < 5 µM | N#Cc1c(N)sc2c(F)ccc(-c3c(Cl)cc4c(N5CCCCC6(CN(C(=O)CC7CCO7)C6)C5)nc(OC[C@@]56CCCN5C[C@H](F)C6)nc4c3F)c12 (stereo partly drawn) [compound 203, 2-amino-4-(6-chloro-8-fluoro-2-(((2R,7aS)-2-fluorotetrahydro-1H-pyrrolizin-7a(5H)-yl)methoxy)-4-(2-(2-(oxetan-2-yl)acetyl)-2,6-diazaspiro[3.6]decan-6-yl)quinazolin-7-yl)-7-fluorobenzo[b]thiophene-3-carbonitrile]
14 | < 5 µM | < 5 µM | N#Cc1c(N)sc2c(F)ccc(-c3c(Cl)cc4c(N5CCCCC6(CN(C(=O)[C@@H]7CCCN7)C6)C5)nc(OC[C@@]56CCCN5C[C@H](F)C6)nc4c3F)c12 [compound 296, 4-(4-(2-(L-prolyl)-2,6-diazaspiro[3.6]decan-6-yl)-6-chloro-8-fluoro-2-(((2R,7aS)-2-fluorotetrahydro-1H-pyrrolizin-7a(5H)-yl)methoxy)quinazolin-7-yl)-2-amino-7-fluorobenzo[b]thiophene-3-carbonitrile]
15 | < 5 µM | < 5 µM | N#Cc1c(N)sc2c(F)ccc(-c3c(Cl)cc4c(N5CCCCC6(CN(C(=O)CC7(C#N)CC7)C6)C5)nc(OC[C@@]56CCCN5C[C@H](F)C6)nc4c3F)c12 [compound 280, 2-amino-4-(6-chloro-4-(2-(2-(1-cyanocyclopropyl)acetyl)-2,6-diazaspiro[3.6]decan-6-yl)-8-fluoro-2-(((2R,7aS)-2-fluorotetrahydro-1H-pyrrolizin-7a(5H)-yl)methoxy)quinazolin-7-yl)-7-fluorobenzo[b]thiophene-3-carbonitrile]
16 | < 5 µM | < 5 µM | COC1CN(C(=O)N2CC3(CCCCN(c4nc(OC[C@@]56CCCN5C[C@H](F)C6)nc5c(F)c(-c6ccc(F)c7sc(N)c(C#N)c67)c(Cl)cc45)C3)C2)C1 [compound 306, 2-amino-4-(6-chloro-8-fluoro-2-(((2R,7aS)-2-fluorotetrahydro-1H-pyrrolizin-7a(5H)-yl)methoxy)-4-(2-(3-methoxyazetidine-1-carbonyl)-2,6-diazaspiro[3.6]decan-6-yl)quinazolin-7-yl)-7-fluorobenzo[b]thiophene-3-carbonitrile]
17 | < 5 µM | < 5 µM | CC1(O)CCN(c2nc(OC[C@@]34CCCN3C[C@H](F)C4)nc3c(F)c(-c4ccc(F)c5sc(N)c(C#N)c45)c(Cl)cc23)CC2(CN(C(=O)[C@@H]3CC3(F)F)C2)C1 (stereo partly drawn) [compound 218, 2-amino-4-(6-chloro-4-(2-((S)-2,2-difluorocyclopropane-1-carbonyl)-9-hydroxy-9-methyl-2,6-diazaspiro [3.6]decan-6-yl)-8-fluoro-2-(((2R,7aS)-2-fluorotetrahydro-1H-pyrrolizin-7a(5H)-yl)methoxy)quinazolin-7-yl)-7-fluorobenzo[b]thiophene-3-carbonitrile]
